This note sets out measurements from patent US8283361B2 (AstraZeneca AB, priority 2008, dated 2012).

The target in the experiment is S. aureus GyrB ATPase (Staphylococcus aureus, UniProt P0A0K8). The experiment in a line: biochemical. As to conditions: compound at 1 μM, one value per test if tested more than once; for inhibition at 1 µM: read-out: % Inhibition of S. aureus GyrB ATPase. The gist of the method:
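IC50 values derive from 10-point titrations of compound (in DMSO). Phosphate formed from 250 μM ATP was quantified by acidic molybdate/malachite green after quenching.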

Each structure is given as a SMILES string.

Chain of S. aureus GyrB ATPase (P0A0K8 whole entry): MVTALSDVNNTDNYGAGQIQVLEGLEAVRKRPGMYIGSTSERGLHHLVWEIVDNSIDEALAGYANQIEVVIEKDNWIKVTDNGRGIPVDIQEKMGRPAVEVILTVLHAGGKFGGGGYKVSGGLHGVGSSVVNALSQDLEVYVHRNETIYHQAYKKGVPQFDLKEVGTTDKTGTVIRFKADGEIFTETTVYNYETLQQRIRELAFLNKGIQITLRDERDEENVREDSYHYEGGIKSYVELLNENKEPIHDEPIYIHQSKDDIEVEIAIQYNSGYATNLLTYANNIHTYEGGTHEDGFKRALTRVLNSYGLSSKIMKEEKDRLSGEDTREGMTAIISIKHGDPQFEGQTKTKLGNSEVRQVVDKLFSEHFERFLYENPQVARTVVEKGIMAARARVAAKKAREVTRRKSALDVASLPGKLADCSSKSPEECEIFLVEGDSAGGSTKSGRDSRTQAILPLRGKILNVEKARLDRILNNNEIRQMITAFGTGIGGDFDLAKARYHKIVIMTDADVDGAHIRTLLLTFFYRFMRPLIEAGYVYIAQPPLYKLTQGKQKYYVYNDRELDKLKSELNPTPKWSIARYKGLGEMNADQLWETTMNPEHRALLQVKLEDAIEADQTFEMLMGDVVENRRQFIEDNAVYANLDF
Chain of S. aureus GyrB ATPase (P0AES4 whole entry, further chain): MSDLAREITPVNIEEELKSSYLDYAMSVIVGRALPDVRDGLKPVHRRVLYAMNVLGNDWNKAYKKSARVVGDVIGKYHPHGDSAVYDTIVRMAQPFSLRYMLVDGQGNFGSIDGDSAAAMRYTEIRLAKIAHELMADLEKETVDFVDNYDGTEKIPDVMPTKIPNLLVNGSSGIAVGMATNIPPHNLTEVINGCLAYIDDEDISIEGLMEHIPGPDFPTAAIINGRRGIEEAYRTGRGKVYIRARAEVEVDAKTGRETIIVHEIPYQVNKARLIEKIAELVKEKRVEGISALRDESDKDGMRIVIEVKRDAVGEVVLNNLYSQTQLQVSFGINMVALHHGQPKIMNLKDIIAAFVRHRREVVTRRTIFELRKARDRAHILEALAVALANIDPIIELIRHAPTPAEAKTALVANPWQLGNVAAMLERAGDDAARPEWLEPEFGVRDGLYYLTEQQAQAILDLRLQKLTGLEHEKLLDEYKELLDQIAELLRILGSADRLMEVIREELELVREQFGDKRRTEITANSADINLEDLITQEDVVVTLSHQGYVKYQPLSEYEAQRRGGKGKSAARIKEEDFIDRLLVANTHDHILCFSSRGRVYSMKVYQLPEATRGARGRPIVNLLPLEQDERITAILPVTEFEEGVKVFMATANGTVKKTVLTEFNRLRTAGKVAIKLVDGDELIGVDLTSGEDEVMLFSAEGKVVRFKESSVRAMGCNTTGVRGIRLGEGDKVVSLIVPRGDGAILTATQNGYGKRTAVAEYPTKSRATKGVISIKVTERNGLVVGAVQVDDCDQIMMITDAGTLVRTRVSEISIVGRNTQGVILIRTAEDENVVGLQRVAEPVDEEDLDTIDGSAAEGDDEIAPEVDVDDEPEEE

By inhibition is commonly meant the drop in the measured response relative to a control, in per cent. Regarding `CCNC(=O)Nc1cc(-c2nc(C(F)(F)F)cs2)c(-c2ccc3c(c2)c(=O)c(C(=O)N2CCN(CCO)CC2)cn3C(COC)COC)cn1` [Example 141, 1-{5-[1-(1,3-dimethoxypropan-2-yl)-3-{[4-(2-hydroxyethyl)piperazin-1-yl]carbonyl}-4-oxo-1,4-dihydroquinolin-6-yl]-4-[4-(trifluoromethyl)-1,3-thiazol-2-yl]pyridin-2-yl}-3-ethylurea], the inhibition at 1 µM came out at 97%.
The same measure, in the same setting: in the case of `CCNC(=O)Nc1cc(-c2nc(C(F)(F)F)cs2)c(-c2ccc3c(c2)c(=O)c(C(=O)N2CCN(S(=O)(=O)N(C)C)CC2)cn3C(COC)COC)cn1` [Example 142, 4-{[1-(1,3-dimethoxypropan-2-yl)-6-{6-[(ethylcarbamoyl)amino]-4-[4-(trifluoromethyl)-1,3-thiazol-2-yl]pyridin-3-yl}-4-oxo-1,4-dihydroquinolin-3-yl]carbonyl}-N,N-dimethylpiperazine-1-sulfonamide] it was 97%; in that of `CCNC(=O)Nc1cc(-c2nc(C(F)(F)F)cs2)c(-c2ccc3c(c2)c(=O)c(C(=O)N2CCN(C)CC2)cn3C(COC)COC)cn1` [Example 143, 1-(5-{1-(1,3-dimethoxypropan-2-yl)-3-[(4-methylpiperazin-1-yl)carbonyl]-4-oxo-1,4-dihydroquinolin-6-yl}-4-[4-(trifluoromethyl)-1,3-thiazol-2-yl]pyridin-2-yl)-3-ethylurea], 95%; in that of `CCNC(=O)Nc1cc(-c2nc(C(F)(F)F)cs2)c(-c2ccc3c(c2)c(=O)c(C(=O)N2CCN(C(C)=O)CC2)cn3C(COC)COC)cn1` [Example 144, 1-(5-{3-[(4-acetylpiperazin-1-yl)carbonyl]-1-(1,3-dimethoxypropan-2-yl)-4-oxo-1,4-dihydroquinolin-6-yl}-4-[4-(trifluoromethyl)-1,3-thiazol-2-yl]pyridin-2-yl)-3-ethylurea], 94%.
Turning to `CCNC(=O)Nc1cc(-c2nc(C(F)(F)F)cs2)c(-c2ccc3c(c2)c(=O)c(C(=O)N2CCN(S(C)(=O)=O)CC2)cn3C(COC)COC)cn1` [Example 145, 1-{5-[1-(1,3-dimethoxypropan-2-yl)-3-{[4-(methylsulfonyl)piperazin-1-yl]carbonyl}-4-oxo-1,4-dihydroquinolin-6-yl]-4-[4-(trifluoromethyl)-1,3-thiazol-2-yl]pyridin-2-yl}-3-ethylurea], the inhibition at 1 µM stood at 92%.
Still for that read-out and setting: in the case of `CCNC(=O)Nc1cc(-c2nc(C(F)(F)F)cs2)c(-c2ccc3c(c2)c(=O)c(C(=O)NCCCO)cn3C2CC2)cn1` [Example 147, 1-cyclopropyl-6-(6-(3-ethylureido)-4-(4-(trifluoromethyl)thiazol-2-yl)pyridin-3-yl)-N-(3-hydroxypropyl)-4-oxo-1,4-dihydroquinoline-3-carboxamide] it was 102%.
On the same count and under the same terms, in the case of `CCNC(=O)Nc1cc(-c2nc(C(F)(F)F)cs2)c(-c2ccc3c(c2)c(=O)c(C(=O)NCCO)cn3C(COC)COC)cn1` [Example 148, 1-(1,3-dimethoxypropan-2-yl)-6-(6-(3-ethylureido)-4-(4-(trifluoromethyl)thiazol-2-yl)pyridin-3-yl)-N-(2-hydroxyethyl)-4-oxo-1,4-dihydroquinoline-3-carboxamide] it was 93%; in that of `CCNC(=O)Nc1cc(-c2nc(C(F)(F)F)cs2)c(-c2ccc3c(c2)c(=O)c(C(=O)NCCCO)cn3C(COC)COC)cn1` [Example 149, 1-(1,3-dimethoxypropan-2-yl)-6-(6-(3-ethylureido)-4-(4-(trifluoromethyl)thiazol-2-yl)pyridin-3-yl)-N-(3-hydroxypropyl)-4-oxo-1,4-dihydroquinoline-3-carboxamide], 93%.
Turning to `CCCNC(=O)Nc1cc(-c2nc(C(F)(F)F)cs2)c(-c2ccc3c(c2)c(=O)c(C(=O)O)cn3CCN(C)C)cn1` [Example 152, 1-(2-(dimethylamino)ethyl)-4-oxo-6-(6-(3-propylureido)-4-(4-(trifluoromethyl)thiazol-2-yl)pyridin-3-yl)-1,4-dihydroquinoline-3-carboxylic acid], the inhibition at 1 µM came to 95%. Under “1 µM”, the “% Inhibition of S. aureus GyrB ATPase” value is listed as 106%.
Turning to `CCCNC(=O)Nc1cc(-c2nc(C(F)(F)F)cs2)c(-c2ccc3c(c2)c(=O)c(C(=O)O)cn3C2CN(C)C2)cn1` [Example 153, 1-(1-methylazetidin-3-yl)-4-oxo-6-(6-(3-propylureido)-4-(4-(trifluoromethyl)thiazol-2-yl)pyridin-3-yl)-1,4-dihydroquinoline-3-carboxylic acid], the inhibition at 1 µM was 105%.
On to `CCCNC(=O)Nc1cc(-c2nc(C(F)(F)F)cs2)c(-c2ccc3c(c2)c(=O)c(C(=O)N2CCN(S(=O)(=O)N(C)C)CC2)cn3CCN(C)C)cn1` [Example 154, 4-(1-(2-(dimethylamino)ethyl)-4-oxo-6-(6-(3-propylureido)-4-(4-(trifluoromethyl)thiazol-2-yl)pyridin-3-yl)-1,4-dihydroquinoline-3-carbonyl)-N,N-dimethylpiperazine-1-sulfonamide], for which the inhibition at 1 µM was found to be 107%.
The same measure, in the same setting: in the case of `CCNC(=O)Nc1cc(-c2nc(C(F)(F)F)cs2)c(-c2ccc3c(c2)c(=O)c(C(=O)N2CCN(C)CC2)cn3CCN(C)C)cn1` [Example 155, 1-(5-(1-(2-(dimethylamino)ethyl)-3-(4-methylpiperazine-1-carbonyl)-4-oxo-1,4-dihydroquinolin-6-yl)-4-(4-(trifluoromethyl)thiazol-2-yl)pyridin-2-yl)-3-ethylurea] it was 94%; in that of `CCCNC(=O)Nc1cc(-c2nc(C(F)(F)F)cs2)c(-c2ccc3c(c2)c(=O)c(C(=O)N2CCN(C)CC2)cn3CCN(C)C)cn1` [Example 156, 1-(5-(1-(2-(dimethylamino)ethyl)-3-(4-methylpiperazine-1-carbonyl)-4-oxo-1,4-dihydroquinolin-6-yl)-4-(4-(trifluoromethyl)thiazol-2-yl)pyridin-2-yl)-3-propylurea], 105%; in that of `CCCNC(=O)Nc1cc(-c2nc(C(F)(F)F)cs2)c(-c2ccc3c(c2)c(=O)c(C(=O)N2CCN(S(C)(=O)=O)CC2)cn3CCN(C)C)cn1` [Example 157, 1-(5-(1-(2-(dimethylamino)ethyl)-3-(4-(methylsulfonyl)piperazine-1-carbonyl)-4-oxo-1,4-dihydroquinolin-6-yl)-4-(4-(trifluoromethyl)thiazol-2-yl)pyridin-2-yl)-3-propylurea], 103%.
In the case of `CCNC(=O)Nc1cc(-c2nc(C(F)(F)F)cs2)c(-c2ccc3c(c2)c(=O)c(C(=O)N2CCNCC2)cn3CCN(C)C)cn1` [Example 158, 1-(5-(1-(2-(dimethylamino)ethyl)-4-oxo-3-(piperazine-1-carbonyl)-1,4-dihydroquinolin-6-yl)-4-(4-(trifluoromethyl)thiazol-2-yl)pyridin-2-yl)-3-ethylurea], the inhibition at 1 µM came to 106%.
On the same count and under the same terms, to `CCNC(=O)Nc1cc(-c2nc(C(F)(F)F)cs2)c(-c2ccc3c(c2)c(=O)c(C(=O)N2CCN(S(=O)(=O)N(C)C)CC2)cn3CCN(C)C)cn1` [Example 159, 4-(1-(2-(dimethylamino)ethyl)-6-(6-(3-ethylureido)-4-(4-(trifluoromethyl)thiazol-2-yl)pyridin-3-yl)-4-oxo-1,4-dihydroquinoline-3-carbonyl)-N,N-dimethylpiperazine-1-sulfonamide] belongs 105%; to `CCCNC(=O)Nc1cc(-c2nc(C(F)(F)F)cs2)c(-c2ccc3c(c2)c(=O)c(C(=O)N2CCN(C(C)=O)CC2)cn3CCN(C)C)cn1` [Example 160, 1-(5-(3-(4-acetylpiperazine-1-carbonyl)-1-(2-(dimethylamino)ethyl)-4-oxo-1,4-dihydroquinolin-6-yl)-4-(4-(trifluoromethyl)thiazol-2-yl)pyridin-2-yl)-3-propylurea], 103%.
The same measure, in the same setting: in the case of `CCCNC(=O)Nc1cc(-c2nc(C(F)(F)F)cs2)c(-c2ccc3c(c2)c(=O)c(C(=O)N2CCNCC2)cn3CCN(C)C)cn1` [Example 161, 1-(5-(1-(2-(dimethylamino)ethyl)-4-oxo-3-(piperazine-1-carbonyl)-1,4-dihydroquinolin-6-yl)-4-(4-(trifluoromethyl)thiazol-2-yl)pyridin-2-yl)-3-propylurea] it was 101%; in that of `CCNC(=O)Nc1cc(-c2nc(C(F)(F)F)cs2)c(-c2ccc3c(c2)c(=O)c(C(=O)N2CCN(C(C)=O)CC2)cn3CCN(C)C)cn1` [Example 162, 1-(5-(3-(4-acetylpiperazine-1-carbonyl)-1-(2-(dimethylamino)ethyl)-4-oxo-1,4-dihydroquinolin-6-yl)-4-(4-(trifluoromethyl)thiazol-2-yl)pyridin-2-yl)-3-ethylurea], 106%; in that of `CCNC(=O)Nc1cc(-c2nc(C(F)(F)F)cs2)c(-c2ccc3c(c2)c(=O)c(C(=O)N2CCN(S(C)(=O)=O)CC2)cn3C2CN(C)C2)cn1` [Example 163, 1-ethyl-3-(5-(1-(1-methylazetidin-3-yl)-3-(4-(methylsulfonyl)piperazine-1-carbonyl)-4-oxo-1,4-dihydroquinolin-6-yl)-4-(4-(trifluoromethyl)thiazol-2-yl)pyridin-2-yl)urea], 106%.
Turning to `CCCNC(=O)Nc1cc(-c2nc(C(F)(F)F)cs2)c(-c2ccc3c(c2)c(=O)c(C(=O)N2CCN(S(=O)(=O)N(C)C)CC2)cn3C2CN(C)C2)cn1` [Example 164, N,N-dimethyl-4-(1-(1-methylazetidin-3-yl)-4-oxo-6-(6-(3-propylureido)-4-(4-(trifluoromethyl)thiazol-2-yl)pyridin-3-yl)-1,4-dihydroquinoline-3-carbonyl)piperazine-1-sulfonamide], the inhibition at 1 µM came to 107%.
The same measure, in the same setting: in the case of `CCNC(=O)Nc1cc(-c2nc(C(F)(F)F)cs2)c(-c2ccc3c(c2)c(=O)c(C(=O)N2CCN(S(=O)(=O)N(C)C)CC2)cn3C2CN(C)C2)cn1` [Example 165, 4-(6-(6-(3-ethylureido)-4-(4-(trifluoromethyl)thiazol-2-yl)pyridin-3-yl)-1-(1-methylazetidin-3-yl)-4-oxo-1,4-dihydroquinoline-3-carbonyl)-N,N-dimethylpiperazine-1-sulfonamide] it was 109%.
